# Measurements taken from ChEMBL document CHEMBL4043185, “Discovery of non-zwitterionic aryl sulfonamides as Nav1.7 inhibitors with efficacy in preclinical behavioral models and translational measures of nociceptive neuron activation” (Bioorg Med Chem, 2017).
# Experiments:
# physchem [1] = settings: PAMPA, pH 5.5
# physchem [2] = settings: PAMPA, pH 7.4
# [3] = Drug concentration in mouse brain at 100 mg/kg, po measured after 30 mins post dose; format: ADME, organism-based; settings: read-out: Drug uptake
# [4] = Plasma concentration in mouse at 100 mg/kg, po measured after 30 mins post dose; format: ADME, organism-based
# [5] = Unbound drug concentration in mouse dorsal root ganglion at 30 mg/kg, po measured after 30 mins post dose; format: ADME, organism-based; settings: in vivo, 0.5 h
# [6] = Ratio of drug level in brain to plasma of mouse at 100 mg/kg, po measured after 30 mins post dose; format: ADME, organism-based; settings: read-out: BPR
# Plasma [7] = test: Unbound plasma concentration in mouse model of nociceptive flexion reflex 30 mg/kg, ip measured after 60 mins post dose; format: ADME, organism-based; settings: in vivo, 1 h
# [8] = Clearance in mouse at 2 mg/kg, iv; format: ADME, organism-based; settings: in vivo
# Plasma [9] = test: Unbound plasma concentration in mouse model of complete Freund's adjuvant-induced inflammatory pain at 10 mg/kg, po measured after 90 mins post dose; format: ADME, organism-based; settings: in vivo, 1.5 h
# Plasma [10] = test: Unbound plasma concentration in mouse model of chronic constriction injury-induced cold hyperalgesia at 100 mg/kg, po dosed 30 mins before testing starting 5 weeks after surgery; format: ADME, organism-based; settings: in vivo
# Plasma [11] = test: Unbound plasma concentration in mouse model of formalin-induced persistent pain at 30 mg/kg, po measured after 90 mins post dose; format: ADME, organism-based; settings: in vivo, 1.5 h
# Plasma [12] = test: Plasma concentration in mouse model of chronic constriction injury-induced cold hyperalgesia at 100 mg/kg, po dosed 30 mins before testing starting 5 weeks after surgery; format: ADME, organism-based; settings: in vivo
# [13] = Plasma concentration in mouse model of nociceptive flexion reflex 10 mg/kg, ip measured after 60 mins post dose; format: ADME, organism-based
# [14] = Plasma concentration in mouse at 100 mg/kg, po measured after 90 mins post dose; format: ADME, organism-based
# [15] = Plasma concentration in mouse model of formalin-induced persistent pain at 30 mg/kg, po measured after 90 mins post dose; format: ADME, organism-based
# [16] = Drug concentration in mouse dorsal root ganglion at 30 mg/kg, po measured after 30 mins post dose; format: ADME, organism-based; settings: read-out: Drug uptake
# [17] = Plasma concentration in mouse model of complete Freund's adjuvant-induced inflammatory pain at 30 mg/kg, po measured after 90 mins post dose; format: ADME, organism-based
# Plasma [18] = test: Unbound plasma concentration in mouse model of complete Freund's adjuvant-induced inflammatory pain at 30 mg/kg, po measured after 90 mins post dose; format: ADME, organism-based; settings: in vivo, 1.5 h
# [19] = Drug concentration in mouse brain at 100 mg/kg, po measured after 90 mins post dose; format: ADME, organism-based; settings: read-out: Drug uptake
# [20] = Drug concentration in trigeminal ganglion of mouse model of formalin-induced persistent pain at 30 mg/kg, po measured after 90 mins post dose; format: ADME, organism-based; settings: read-out: Drug uptake
# [21] = Plasma concentration in mouse model of complete Freund's adjuvant-induced inflammatory pain at 10 mg/kg, po measured after 90 mins post dose; format: ADME, organism-based
# [22] = Volume of distribution at steady state in mouse at 2 mg/kg, iv; format: ADME, organism-based; settings: in vivo, read-out: Vdss
# [23] = Unbound drug concentration in dorsal root ganglion of mouse model of formalin-induced persistent pain at 30 mg/kg, po measured after 90 mins post dose; format: ADME, organism-based; settings: in vivo, 1.5 h
# [24] = Oral bioavailability life in mouse at 30 mg/kg; format: ADME, organism-based; settings: in vivo
# [25] = Ratio of drug level in brain to plasma of mouse at 100 mg/kg, po measured after 90 mins post dose; format: ADME, organism-based; settings: read-out: BPR
# [26] = Drug concentration in mouse trigeminal ganglion at 30 mg/kg, po measured after 30 mins post dose; format: ADME, organism-based; settings: read-out: Drug uptake
# [27] = Half life in mouse at 30 mg/kg, po; format: ADME, organism-based; settings: in vivo
# [28] = Plasma concentration in mouse at 30 mg/kg, po measured after 30 mins post dose; format: ADME, organism-based
# [29] = Plasma concentration in mouse model of complete Freund's adjuvant-induced inflammatory pain at 60 mg/kg, po measured after 90 mins post dose; format: ADME, organism-based
# [30] = Drug concentration in dorsal root ganglion of mouse model of formalin-induced persistent pain at 30 mg/kg, po measured after 90 mins post dose; format: ADME, organism-based; settings: read-out: Drug uptake
# Plasma [31] = test: Unbound plasma concentration in mouse model of complete Freund's adjuvant-induced inflammatory pain at 60 mg/kg, po measured after 90 mins post dose; format: ADME, organism-based; settings: in vivo, 1.5 h
# Plasma [32] = test: Unbound plasma concentration in mouse at 30 mg/kg, po measured after 30 mins post dose; format: ADME, organism-based; settings: in vivo, 0.5 h
# [33] = Drug concentration in brain of mouse model of complete Freund's adjuvant-induced inflammatory pain at 30 mg/kg, po measured after 90 mins post dose; format: ADME, organism-based; settings: read-out: Drug uptake
# [34] = Drug concentration in brain of mouse model of complete Freund's adjuvant-induced inflammatory pain at 60 mg/kg, po measured after 90 mins post dose; format: ADME, organism-based; settings: read-out: Drug uptake
# [35] = Drug concentration in brain of mouse model of complete Freund's adjuvant-induced inflammatory pain at 10 mg/kg, po measured after 90 mins post dose; format: ADME, organism-based; settings: read-out: Drug uptake
# [36] = Plasma concentration in mouse model of nociceptive flexion reflex 30 mg/kg, ip measured after 60 mins post dose; format: ADME, organism-based
# Plasma [37] = test: Unbound plasma concentration in mouse model of nociceptive flexion reflex 10 mg/kg, ip measured after 60 mins post dose; format: ADME, organism-based; settings: in vivo, 1 h
# [38] = Cmax in mouse at 30 mg/kg, po; format: ADME, organism-based; set-up: dose 30 mg/kg, route oral; settings: in vivo
# [39] = PAMPA, pH 5.5
smiles,measurement,setting,value
O=S(=O)(Nc1nccs1)c1cc(Cl)c(NC[C@H]2CC[C@@H](O)CC2)cc1F,Papp,physchem [1],46.4 ×10⁻⁶ cm/s
same,Papp,physchem [2],10.1 ×10⁻⁶ cm/s
O=S(=O)(Nc1nccs1)c1cc(Cl)c(NC[C@H]2CCCOC2)cc1F,concentration at 0.5 h,[3],120 nM
same,concentration at 0.5 h,[4],7340 nM
same,Drug uptake(free),[5],0.11 µM
same,Kp at 0.5 h,[6],0.017
same,Cp(f),Plasma [7],1900 nM
same,clearance,[8],13 mL/min/kg
same,Cp(f),Plasma [9],17 nM
same,Cp(f),Plasma [10],740 nM
same,Cp(f),Plasma [11],170 nM
same,concentration,Plasma [12],32000 nM
same,concentration at 1 h,[13],29000 nM
same,concentration at 1.5 h,[14],3670 nM
same,concentration at 1.5 h,[15],7300 nM
same,concentration at 0.5 h,[16],1100 nM
same,Papp,physchem [1],47.7 ×10⁻⁶ cm/s
same,concentration at 1.5 h,[17],1130 nM
same,Cp(f),Plasma [18],26 nM
same,concentration at 1.5 h,[19],42 nM
same,concentration at 1.5 h,[20],5000 nM
same,concentration at 1.5 h,[21],750 nM
same,Vd,[22],0.6 L/kg
same,Drug uptake(free),[23],0.07 µM
same,bioavailability,[24],47%
same,Kp at 1.5 h,[25],0.012
same,concentration at 0.5 h,[26],5800 nM
same,half-life,[27],3 h
same,concentration at 0.5 h,[28],13000 nM
same,concentration at 1.5 h,[29],2560 nM
same,concentration at 1.5 h,[30],660 nM
same,Cp(f),Plasma [31],59 nM
same,Papp,physchem [2],37.7 ×10⁻⁶ cm/s
same,Cp(f),Plasma [32],300 nM
same,concentration at 1.5 h,[33],< 25 nM
same,concentration at 1.5 h,[34],< 25 nM
same,concentration at 1.5 h,[35],< 25 nM
same,concentration at 1 h,[36],82000 nM
same,Cp(f),Plasma [37],660 nM
same,Cmax,[38],37000 nM
O=S(=O)(Nc1nccs1)c1cc(Cl)c(NCC2CCCC3(C2)OCCO3)cc1F (stereo not given),Papp,physchem [1],45.1 ×10⁻⁶ cm/s
same,Papp,physchem [2],41.9 ×10⁻⁶ cm/s
O=S(=O)(Nc1nccs1)c1cc(Cl)c(NC[C@H]2CC[C@H](O)CC2)cc1F,Papp,physchem [1],54.6 ×10⁻⁶ cm/s
same,Papp,physchem [2],20.7 ×10⁻⁶ cm/s
O=S(=O)(Nc1nccs1)c1cc(Cl)c(NCC2CCCCO2)cc1F (stereo not given),Papp,physchem [1],61 ×10⁻⁶ cm/s
same,Papp,physchem [2],61 ×10⁻⁶ cm/s
CC(C)(C)[C@H]1OCCC[C@@H]1CNc1cc(F)c(S(=O)(=O)Nc2nccs2)cc1Cl (racemic),Papp,[39],Not Active
same,Papp,physchem [2],67.7 ×10⁻⁶ cm/s
CC(C)(C)[C@@H]1OCCC[C@@H]1CNc1cc(F)c(S(=O)(=O)Nc2nccs2)cc1Cl (racemic),Papp,physchem [2],43.9 ×10⁻⁶ cm/s
O=S(=O)(Nc1nccs1)c1cc(Cl)c(NC[C@H]2CCC[C@H](O)C2)cc1F (racemic),Papp,physchem [1],21.6 ×10⁻⁶ cm/s
same,Papp,physchem [2],16.2 ×10⁻⁶ cm/s
O=S(=O)(Nc1nccs1)c1cc(Cl)c(NC[C@H]2CCC[C@@H](O)C2)cc1F (racemic),Papp,physchem [1],21.6 ×10⁻⁶ cm/s
same,Papp,physchem [2],16.2 ×10⁻⁶ cm/s
O=S(=O)(Nc1nccs1)c1cc(Cl)c(NC[C@H]2CCCO[C@@H]2c2ccccc2)cc1F (racemic),Papp,physchem [1],42.8 ×10⁻⁶ cm/s
same,Papp,physchem [2],73.5 ×10⁻⁶ cm/s
